# Measurements as given in patent US20240156832A1, “METHODS OF METABOLIZING METOPIMAZINE AND ITS SALTS” (Neurogastrx, Inc., priority 2020, published 2024).
# Entries after “also recorded” stand apart in the source; their conditions may differ.
# Key:
# [1] = biological target: T1, human liver cytosolic aldehyde oxidase (Homo sapiens, UniProt Q06278); experiment: Incubations with HLC fractions for AO activity; assay type: in vitro ADME; details: HLC 1 mg/mL, 10 μM MPZ
# T1 construct: tissue Xenotech; host or cells: pooled human liver cytosol
# T1 sequence (Q06278 1-1338): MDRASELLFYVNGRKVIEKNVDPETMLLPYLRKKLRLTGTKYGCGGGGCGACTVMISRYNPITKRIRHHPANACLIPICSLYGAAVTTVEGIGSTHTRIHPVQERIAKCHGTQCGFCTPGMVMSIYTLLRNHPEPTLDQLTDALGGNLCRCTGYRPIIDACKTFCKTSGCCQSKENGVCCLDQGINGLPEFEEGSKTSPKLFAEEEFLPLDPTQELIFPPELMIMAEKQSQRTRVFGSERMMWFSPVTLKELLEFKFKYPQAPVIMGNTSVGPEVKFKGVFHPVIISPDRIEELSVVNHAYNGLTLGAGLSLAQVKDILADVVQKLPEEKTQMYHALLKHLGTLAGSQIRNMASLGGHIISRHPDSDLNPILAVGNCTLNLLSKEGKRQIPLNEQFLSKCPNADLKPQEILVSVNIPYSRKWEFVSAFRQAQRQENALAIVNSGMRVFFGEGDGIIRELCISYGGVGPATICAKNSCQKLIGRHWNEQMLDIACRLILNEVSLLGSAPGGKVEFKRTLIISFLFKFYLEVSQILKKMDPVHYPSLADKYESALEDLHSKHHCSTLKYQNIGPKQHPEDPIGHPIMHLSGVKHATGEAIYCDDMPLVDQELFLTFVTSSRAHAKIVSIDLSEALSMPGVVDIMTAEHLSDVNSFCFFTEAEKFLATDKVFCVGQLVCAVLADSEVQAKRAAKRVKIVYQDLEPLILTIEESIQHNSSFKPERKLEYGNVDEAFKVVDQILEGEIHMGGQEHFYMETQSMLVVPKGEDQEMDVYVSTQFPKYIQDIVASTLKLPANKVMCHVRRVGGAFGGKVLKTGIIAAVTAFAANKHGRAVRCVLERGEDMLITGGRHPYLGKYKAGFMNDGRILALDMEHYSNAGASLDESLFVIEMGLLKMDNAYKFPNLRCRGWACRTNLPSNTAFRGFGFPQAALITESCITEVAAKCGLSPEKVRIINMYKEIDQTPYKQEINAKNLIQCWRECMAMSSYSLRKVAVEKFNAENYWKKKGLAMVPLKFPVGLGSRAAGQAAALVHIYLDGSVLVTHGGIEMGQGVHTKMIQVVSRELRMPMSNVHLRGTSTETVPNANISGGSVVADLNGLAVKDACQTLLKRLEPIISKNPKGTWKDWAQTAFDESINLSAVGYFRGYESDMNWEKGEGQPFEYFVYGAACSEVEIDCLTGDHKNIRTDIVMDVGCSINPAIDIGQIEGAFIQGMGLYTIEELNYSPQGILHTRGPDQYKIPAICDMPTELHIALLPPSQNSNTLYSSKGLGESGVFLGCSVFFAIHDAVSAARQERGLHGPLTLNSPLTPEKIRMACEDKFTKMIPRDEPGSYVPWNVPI
# Description: The metabolism of MPZ was evaluated in the human liver cytosolic incubation. A metabolic incubation was performed with HLC (1 mg/mL protein) and 10 μM MPZ at 37° C. for on an orbital shaker for 60 min. […] Another set of incubation was also conducted 1 μM phthalazine, a known substrate for aldehyde oxidase as positive control, under identical conditions.
# [2] = tested on: human microsomal liver amidase; experiment: Incubations with HLM for microsomal hydrolase/amidase activity; assay type: in vitro ADME; details: HLM, 10 μM MPZ, 60 min, pH 7.4, 8.4 and 9.4
# Description: Incubations with HLM for Microsomal Hydrolase/Amidase Activity Prior to the reaction for amidase activity, the reaction mixture containing KPi buffer (pH 7.4, 8.4, or 9.4) and HLM was pre-incubated at 50° C. for 5 minutes to inactivate CYP and FMO activities in HLM. The mixture was placed on ice to cool down. An aliquot was taken out which was considered as t=0 min incubation. Then 10 μM MPZ was added into the remaining mixture and incubated at 37° C. on an orbital shaker for 60 minutes. A parallel set of incubations was conducted with 10 μM MPZ in the presence at 2 and 16 μM, of BNPP (a known inhibitor of amidase). All reactions were in triplicate. The total percentage of organic solvent in incubation mixture was ≤0.1%. The reactions were terminated by the addition of chilled acetonitrile: methanol, 90:10, (v/v). The samples were vortex-mixed and stored at ≤−70° C. and were subjected analyzed by LC MS/MS.
structure (smiles),measurement,setting,value
"CS(=O)(=O)c1ccc2c(c1)N(CCCN1CCC(C(=O)O)CC1)c1ccccc1S2 [MPZA, metopimazine acid]","Metopimazine Acid Formation, 100 μM Menadione",[1]; incubation time 0 min,0.00 nM
same,"Metopimazine Acid Formation, No Menadione",[1]; incubation time 0 min,0.00 nM
same,"Metopimazine Acid Formation, 100 μM Menadione",[1]; incubation time 60 min,718.90 ± 21.40 nM
same,"Metopimazine Acid Formation, No Menadione",[1]; incubation time 60 min,1371.66 ± 70.93 nM
same,MPZA formation as a function of pH,[2],"faster the higher the pH; also recorded: maximal at the highest pH tested, pH 9.4; also recorded: occurs at all pHs and increases at pHs above physiologic pH"
